Experimental data: PubChem BioAssay (NCI)
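Grown in 96-well plates, cells were treated for 48 hours with each compound at five concentrations. Insufficient inhibition: endpoint recorded as highest concentration tested. TGI is the concentration that stops growth completely.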

Experiments:
Experiment in all cases: NCI tumour cell line growth inhibition, 48 h
[1] = tested on: BT-549 breast
[2] = tested on: HCC-2998 colon
[3] = tested on: HT29 colon
[4] = tested on: T-47D breast
[5] = tested on: COLO 205 colon
[6] = tested on: MDA-MB-231 breast
[7] = tested on: OVCAR-8 ovarian
[8] = tested on: UO-31 renal
[9] = tested on: CCRF-CEM leukemia
[10] = tested on: HOP-62 NSCLC
[11] = tested on: EKVX NSCLC
[12] = tested on: TK-10 renal
[13] = tested on: OVCAR-3 ovarian
[14] = tested on: LOX IMVI melanoma

Row | Compound | TGI [1] [µM] | TGI [2] [µM] | TGI [3] [µM] | TGI [4] [µM] | TGI [5] [µM] | TGI [6] [µM] | TGI [7] [µM] | TGI [8] [µM] | TGI [9] [µM] | TGI [10] [µM] | TGI [11] [µM] | TGI [12] [µM] | TGI [13] [µM] | TGI [14] [µM]
1 | CCOC(=O)c1nnsc1NC(=O)Nc1ccc(Cl)cc1 | > 100 | > 100 | > 100 | > 100 | > 100 | 52.7 | 41.2 | > 100 | > 100 | > 100 | > 100 | > 100 | > 100 | 
2 | CC1=CCC[C@@](C)(O)[C@@H]2C[C@H]3C(CSc4ccccc4)C(=O)O[C@H]3[C@@H](O2)[C@H](C)CCC1 (stereo partly drawn) | 46.2 | 30.3 |  | 93.7 | 40.4 | > 100 | 32.4 | 24.1 | > 100 | 34.5 | 63.2 | 33.5 | 26.5 | 81.6
3 | CC(C)C[C@H](NC(=O)CCc1ccccc1)B(O)O | 57.6 | 27 | 15.4 | 43.9 | 75.3 | 36.2 | 46.2 | 60.1 | 7.33 | 46.9 | > 100 | 55.8 | 17.4 | 16.7
4 | O=C1Nc2ccccc2[C@]12C[C@H]2c1ccccn1 | > 100 | > 100 |  | > 100 | > 100 | > 100 |  | > 100 | > 100 | > 100 | > 100 | > 100 | > 100 | > 100
5 | OCCSCc1cc2c(O)c(c1)Cc1cc(CSCCO)cc(c1O)Cc1cc(CSCCO)cc(c1O)Cc1cc(CSCCO)cc(c1O)C2 | 11.7 | 23.1 | 7.4 | 26.3 | 7.31 | 7.21 | 17.6 | 28.3 | 68.2 | 15.6 | 46.1 | 37 | 4.27 | 11.9
6 | CC1=NN2C(=O)CC(=O)N=C2S1 | > 100 |  | > 100 | > 100 | > 100 | > 100 | > 100 |  | > 100 | > 100 | > 100 | > 100 | > 100 | > 100
7 | CC1=CC2(O)OC3(CC2=C(C)C)C(C)CCC13 (stereo not drawn) | > 100 |  | > 100 | > 100 | > 100 | > 100 | > 100 | > 100 | > 100 | > 100 | > 100 | > 100 | > 100 | > 100
8 | CCCCSC1=N/C(=C\c2ccco2)C(=O)N1 | > 100 | > 100 | > 100 | > 100 | > 100 | > 100 | > 100 | > 100 | > 100 | > 100 | > 100 | > 100 | > 100 | 
9 | CC(=O)OCC1OC(n2c3c(c(-c4ccc(Cl)cc4)c(C#N)c2=S)C(=O)CC(C)(C)C3)C(OC(C)=O)C(OC(C)=O)C1OC(C)=O (stereo not drawn) | 12.8 | 27.9 | > 72.2 | > 27.7 | > 62.8 | 37 | 51.8 | > 78.5 | > 100 | > 100 |  | > 100 | > 74 | 29.8
10 | CN(C)c1ccc(/C=C2\N=C(N/N=C/c3ccccc3)NC2=O)cc1 | > 100 | > 100 | > 100 | > 100 | > 100 | > 100 | 72.8 | > 100 | > 100 | > 100 | > 100 | > 100 | > 100 | 
11 | CC(=O)O[C@H]1C(=O)[C@@]2(C)[C@H]([C@H](OC(=O)c3ccc([N+](=O)[O-])cc3)[C@]3(O)C[C@H](OC(=O)[C@H](O)[C@@H](NC(=O)c4ccccc4)c4ccccc4)C(C)=C1C3(C)C)[C@]1(OC(C)=O)CO[C@@H]1C[C@@H]2O | > 25 | > 25 | > 25 | > 25 | > 25 | > 25 | > 25 | > 25 | > 25 | > 25 | > 25 | > 25 |  | 
12 | COc1ccc(C2CC(=O)Oc3ccccc3O2)cc1 (stereo not drawn) | > 100 | > 100 | > 100 | > 100 | > 100 | > 100 | > 100 | > 100 | > 100 | > 100 | > 100 | > 100 | > 100 | 
13 | CCOc1ccc(N/C(=C(/C(Cl)=C(/Cl)NCCO)[N+](=O)[O-])n2nnc3ccccc32)cc1 | 38.6 | > 100 | 85.3 | 37.6 | 29.7 | 63.8 | 36.7 | 58 | > 100 | > 100 | > 100 |  | 35.2 | 
14 | C[C@]12CC(c3ccccc3O1)C(C#N)C(=O)N2 (stereo partly drawn) | > 100 | > 100 | > 100 | > 100 | > 100 | > 100 | > 100 |  | > 100 | > 100 | > 100 |  | > 100 | > 100
15 | COC1C=C(NCC2(CO)CCC2)NC(N)=N1 (stereo not drawn) | > 100 | > 100 | > 100 | > 100 | > 100 | > 100 | > 100 | > 100 | > 100 | > 100 | > 100 |  | > 100 | > 100
16 | COc1ccc(OC)c(NC(=O)C(=O)Nn2c(=S)[nH]c3ccccc3c2=O)c1 | > 100 | > 100 | > 100 | > 100 |  | > 100 | > 100 | > 100 | > 100 | > 100 | > 100 | > 100 | > 100 | > 100
17 | Nc1nc(N)nc(-c2cnccn2)n1 | > 100 | > 100 |  | > 100 | > 100 | > 100 | > 100 | > 100 | > 100 | > 100 | > 100 | > 100 | > 100 | > 100
